{"source": "paper PMC9271465", "about": "(ESMO Open, 2022)", "origin": "cited, not measured here", "key": {"EGFR-mutated NSCLC": {"tested_on": "EGFR-mutated NSCLC", "settings": "cited from earlier work"}, "[1]": {"settings": "cited from earlier work"}, "EGFR T790M+ NSCLC": {"tested_on": "EGFR T790M+ NSCLC", "settings": "cited from earlier work"}, "[2]": {"settings": "EGFR T790M+ advanced NSCLC after progression on prior EGFR-TKI"}, "[3]": {"settings": "central nervous system activity"}, "[4]": {"settings": "metastatic EGFR T790M+ NSCLC progressed during or after first-line EGFR-TKI"}}, "note": "Where two headings read alike, the source gives them in different places.", "data": [{"smiles": "C#Cc1cccc(Nc2ncnc3cc4c(cc23)OCCOCCOCCO4)c1", "note": "[Icotinib]", "values": [{"measurement": "median OS", "setting": "EGFR-mutated NSCLC", "value": 30.5, "unit": "months"}, {"measurement": "median PFS", "setting": "EGFR-mutated NSCLC", "value": 11.2, "unit": "months"}]}, {"smiles": "C=CC(=O)Nc1cccc(Oc2nc(Nc3ccc(N4CCN(C)CC4)c(F)c3)nc3[nH]ccc23)c1", "note": "[abivertinib]", "values": [{"measurement": "most common TRAEs", "setting": "[1]", "value": "rash/diarrhea"}]}, {"smiles": "C=CC(=O)Nc1cc(Nc2nccc(-c3cn(C4CC4)c4ccccc34)n2)c(OC)cc1N(C)CCN(C)C", "note": "[almonertinib]", "values": [{"measurement": "intracranial ORR", "setting": "EGFR T790M+ NSCLC; [2]", "value": 60.9, "unit": "%"}, {"measurement": "updated ORR", "setting": "EGFR T790M+ NSCLC; [2]", "value": 68.9, "unit": "%"}, {"measurement": "DCR", "setting": "EGFR T790M+ NSCLC; phase I trial", "value": 89, "unit": "%"}, {"measurement": "ORR", "setting": "EGFR T790M+ NSCLC; phase I trial", "value": 50, "unit": "%"}, {"measurement": "PFS", "setting": "EGFR T790M+ NSCLC; phase I trial", "value": 9.6, "unit": "months"}]}, {"smiles": "C#Cc1cccc(Nc2ncnc3cc(OCCOC)c(OCCOC)cc23)c1", "note": "[erlotinib]", "values": [{"measurement": "median overall survival (OS)", "setting": "EGFR-mutated NSCLC; EGFR-mutated NSCLC", "value": "19.3-30.5 months"}, {"measurement": "median progression-free survival (PFS)", "setting": "EGFR-mutated NSCLC; EGFR-mutated NSCLC", "value": "9.7-10.8 months"}]}, {"smiles": "C=CC(=O)Nc1cc(Nc2nccc(-c3cn(C)c4ccccc34)n2)c(OCC(F)(F)F)nc1N(C)CCN(C)C", "note": "[furmonertinib]", "values": [{"measurement": "ORR", "setting": "EGFR T790M+ NSCLC; EGFR T790M-mutated NSCLC", "value": 74, "unit": "%"}, {"measurement": "median PFS", "setting": "EGFR T790M+ NSCLC; EGFR T790M-mutated NSCLC", "value": 9.6, "unit": "months"}]}, {"smiles": "C=CC(=O)Nc1cc(Nc2nccc(-n3cc(CN(C)C)c(-c4ccccc4)n3)n2)c(OC)cc1N1CCOCC1", "note": "[lazertinib]", "values": [{"measurement": "most common TRAEs", "setting": "[1]", "value": "rash/pruritis"}]}, {"smiles": "Cc1cc(C(=O)Nc2nc3cccc(Cl)c3n2[C@@H]2CCCCN(C(=O)/C=C/CN(C)C)C2)ccn1", "note": "[nazartinib]", "values": [{"measurement": "most common TRAEs", "setting": "[1]", "value": "rash/diarrhea"}]}, {"smiles": "C=CC(=O)Nc1cc(Nc2nccc(-c3cn(C)c4ccccc34)n2)c(OC)cc1N(C)CCN(C)C", "note": "[osimertinib]", "values": [{"measurement": "intracranial DCR", "setting": "EGFR T790M+ NSCLC; [3]", "value": 92, "unit": "%"}, {"measurement": "intracranial ORR", "setting": "EGFR T790M+ NSCLC; [3]", "value": 54, "unit": "%"}, {"measurement": "ORR", "setting": "EGFR T790M+ NSCLC; [4]", "value": "61%-71"}, {"measurement": "median PFS", "setting": "EGFR T790M+ NSCLC; [4]", "value": "9.6-15.2 months"}]}]}
